Values quoted from earlier work as cited in publication PMC12298827, “Subchronic Toxicities of Four Per- and Polyfluoroalkyl Substances (PFASs) by Oral Exposure in Sprague–Dawley Rats” (Toxics, 2025).

Tested on: male and female rats
Conditions: cited from earlier work

SMILES | Effect on absolute and relative liver weights (28- and 90-day oral gavage ref 16) | Effect on liver weights or bodyweights (doses of up to 600 mg/kg-day, 90-day oral gavage, male or female rats ref 21)
N.O=C(O)C(F)(F)C(F)(F)C(F)(F)F [ammonium perfluorobutyrate] | significant increases in the absolute and relative liver weights only in male rats | –
O=S(=O)(O)C(F)(F)C(F)(F)C(F)(F)C(F)(F)F [perfluorobutane sulfonate] | – | did not affect the liver weights or bodyweights
